The conditions of series [1]: human, in vivo; cited from earlier work.
In series [2] the test system is rats. The following applies: rat, in vivo.
The subject of series [3] is rats. As to conditions: rat, in vivo. This is another data set of the same source.
For series [4] the following is noted: rat, in vivo.
Series [5] relates to rats. As to conditions: rat, in vivo. The source holds these as a separate data set.
The conditions of series [6]: rat, in vivo. The source holds these as a separate data set.
[7] abbreviates: male, Charles Rivers CD (Sprague-Dawley).

The values that follow come from patent publication US6583125B2 (priority 1992, dated 2003).

Read-outs that look alike come from different tables or passages of the source. *1 amine or outer side, *2 acyl side, *3 side chain or, on linkers, in order; H or OH if unused. Where a SMILES comes first, the peptide text is derived from it. Bridges are numbered along the chain shown (N, C = ends). Roman numbers before positions name the chains, in order. [ ]: non-standard residue; d: D form. Actinocin(9to1) = Cc1c2oc3c(C)ccc(C(=O)[*:1])c3nc-2c(C(=O)[*:2])c(N)c1=O; NMeV = CN[C@H](C(=O)O)C(C)C; Sar = CNCC(=O)O

On to `CO[C@@H]1[C@H](O)C[C@@H](O[C@@H]2C[C@H](Oc3cc4cc5c(c(O)c4c(O)c3C)C(=O)[C@@H](O[C@H]3C[C@@H](O[C@H]4C[C@@H](O[C@H]6C[C@](C)(O)[C@@H](OC(C)=O)[C@H](C)O6)[C@H](O)[C@@H](C)O4)[C@H](O)[C@@H](C)O3)[C@H]([C@H](OC)C(=O)[C@@H](O)[C@@H](C)O)C5)O[C@H](C)[C@@H]2OC(C)=O)O[C@@H]1C` [Chromomycin A3], for which, in series [1], the “Acute Local tissue Effects (infiltration)” value is “Sever tissue sloughing” and the “Frequency of Phlebitis” value is listed as “Frequent”. In the series on rats [2], hydroxypropyl-β-cyclodextrin [HPCD] registered a lesion size of 3.5 mm. In the series on rats [3], the “diameter of the lesion in the one remaining animal” value was 0.3 cm and the “rats with no lesion at any sampling time” value is given as 7 of 8. Moreover, in series [4], the “effect on body weight” value is reported as “no effect on body weight”. The lesions caused entry in the series with rats [5] was “no lesions”.

In the case of `CN(C)/N=N/c1[nH]cnc1C(N)=O` [dacarbazine], in series [1], the “Acute Local tissue Effects (infiltration)” value is given as “Pain, mild inflammation,” and the “Frequency of Phlebitis” value is reported as “Frequent”. For the compound `COc1cc([C@@H]2c3cc4c(cc3[C@@H](O[C@@H]3O[C@@H]5CO[C@@H](c6cccs6)O[C@H]5[C@H](O)[C@H]3O)[C@H]3COC(=O)[C@H]23)OCO4)cc(OC)c1O` [Tenoposide], the “Frequency of Phlebitis” value in series [1] is “Frequent”. As to `CN(N=O)C(=O)N[C@@H](C=O)[C@@H](O)[C@H](O)[C@H](O)CO` [streptozocin], in series [1], the “Frequency of Phlebitis” value is “Infrequent”. Turning to `CO[C@@]12[C@H](COC(N)=O)C3=C(C(=O)C(C)=C(N)C3=O)N1C[C@@H]1N[C@@H]12` [mitomycin-c], the rats died result in series [6] (male) was “Five of 12”. Besides, the “loss of initial body weight” value in series [6] is reported as “about 25%”. As for `COc1cccc2c1C(=O)c1c(O)c3c(c(O)c1C2=O)C[C@@](O)(C(=O)CO)C[C@@H]3O[C@H]1C[C@H](N)[C@H](O)[C@H](C)O1` [Doxorubicin, 10-[(3-amino-2,3,6-tri-deoxy-α-L-lyxo-hexopyransoyl)oxy]-7,8,9,10-tetrahydro-6,8,-11-trihydroxy-8-(hydroxyacetyl)-1-methyoxy-5,12-naphthacenedione], in the series with rats [3] (setting [7]), the rats with lesions entry is “all 8” and the “rats with necrotic lesions of the skin” value is recorded as “all 8”. In series [4], the “effect on body weight” value was “no adverse effect on body weight”. In addition, the “Frequency of Phlebitis” value in series [1] was “Frequent”. Consider `CC[C@]1(O)C[C@H]2CN(CCc3c([nH]c4ccccc34)[C@@](C(=O)OC)(c3cc4c(cc3OC)N(C=O)[C@H]3[C@@](O)(C(=O)OC)[C@H](OC(C)=O)[C@]5(CC)C=CCN6CC[C@]43[C@@H]65)C2)C1` [Vincristine, 22-Oxoyincaleukoblastine], for which the “Frequency of Phlebitis” value in series [1] is on record as “Infrequent”. Consider `COc1cccc2c1C(=O)c1c(O)c3c(c(O)c1C2=O)C[C@@](O)(C(C)=O)C[C@@H]3O[C@H]1C[C@H](N)[C@H](O)[C@H](C)O1` [daunorubicin], for which the “Frequency of Phlebitis” value in series [1] is “Frequent”. As for `CC(=O)O[C@H]1C(=O)[C@@]2(C)[C@H]([C@H](OC(=O)c3ccccc3)[C@]3(O)C[C@H](OC(=O)[C@H](O)[C@@H](NC(=O)c4ccccc4)c4ccccc4)C(C)=C1C3(C)C)[C@]1(OC(C)=O)CO[C@@H]1C[C@@H]2O` [Taxol CV, Taxol], in the series with rats [5] (male, Charles Rivers CD), the rats with lesions entry is “all 8”. As for `CC(=O)[C@]1(O)Cc2c(O)c3c(c(O)c2[C@@H](O[C@H]2C[C@H](N)[C@H](O)[C@H](C)O2)C1)C(=O)c1ccccc1C3=O` [Idarubicin], the “Frequency of Phlebitis” value in series [1] is “Frequent”.

In the case of `Cc1c2oc3c(C)ccc(C(=O)N[C@@H]4C(=O)N[C@H](C(C)C)C(=O)N5CCC[C@H]5C(=O)N(C)CC(=O)N(C)[C@@H](C(C)C)C(=O)O[C@@H]4C)c3nc-2c(C(=O)N[C@@H]2C(=O)N[C@H](C(C)C)C(=O)N3CCC[C@H]3C(=O)N(C)CC(=O)N(C)[C@@H](C(C)C)C(=O)O[C@@H]2C)c(N)c1=O` [dactinomycin] (I: T[dV]P[Sar][NMeV] / II: T[dV]P[Sar][NMeV]; ester I:1-I:C, II:1-II:C; linker I:N-II:N via Actinocin(9to1)), the “Frequency of Phlebitis” value in series [1] is listed as “Frequent”.
